These results are taken from ChEMBL document CHEMBL1681643 (Bioorg Med Chem Lett, 2011).

In brackets after ≈: the same amount, converted by molar mass. Activity calls are given as the source filed them. The rule behind the calls is not given here. Non-standard residues stand in square brackets, D forms with d. Residues, ends and D or L forms follow the SMILES beside them. *: point of attachment. S(CH2)2OCO2(CPT-20-yl) = CC[C@@]1(OC(=O)OCCS*)C(=O)OCc2c1cc1n(c2=O)Cc2cc3ccccc3nc2-1; Ahx = NCCCCCC(=O)O

One data set has as its system U-251. Description: Anticancer activity against NK1R overexpressing human U251MG cells assessed as cell viability after 72 hrs by MTT assay. The data set is classed as functional, cell-based. In general terms: Tetrazolium assays rely on reduction of a dye to a coloured formazan, in cell work by metabolically active cells.
Another data set deals with MDA-MB-231. In words: Anticancer activity against NK1R overexpressing human MDA-MB-231 cells assessed as cell viability after 72 hrs by MTT assay. The class given is functional, cell-based.
For another data set, the system named is MCF7. Description: Anticancer activity against NK1R overexpressing human MCF7 cells assessed as cell viability after 72 hrs by MTT assay. The class given is functional, cell-based.
The test system of another data set is U-87MG ATCC. Description: Anticancer activity against NK1R overexpressing human U87MG cells assessed as cell viability after 72 hrs by MTT assay. The class given is functional, cell-based.
The subject of data set [1] is CHO. In words: Drug uptake in NK1R overexpressing CHO cells at 10 uM after 30 mins by confocal microscopy. The class given is ADME, cell-based, Cricetulus griseus. Particulars: chinese hamster, 0.5 h.
Data set [2] in a line: Solubility of the compound in phosphate buffer at pH 7.4. The data set is classed as physicochemical.
The subject of data set [3] is CHO. Description: Drug uptake in CHO cells at 10 uM after 30 mins by confocal microscopy. The data set is classed as ADME, cell-based, Cricetulus griseus. Particulars: chinese hamster, 0.5 h.
Data set [4] concerns CHO. In words: Cytotoxicity against CHO cells assessed as cell proliferation after 72 hrs by MTT assay. The class given is cell-based, Cricetulus griseus. Particulars: chinese hamster.
Data set [5] relates to CHO. In words: Cytotoxicity against NK1R overexpressing CHO cells assessed as cell viability after 72 hrs by MTT assay. The data set is classed as functional, cell-based. Particulars: Cricetulus griseus.
For data set [6], the system named is CHO. Description: Cytotoxicity against CHO cells assessed as cell viability after 72 hrs by MTT assay. Particulars: chinese hamster. The class given is cell-based, Cricetulus griseus.

Usually solubility stands for the dissolved amount per volume that the medium holds. Read a low solubility as little dissolved substance.

`CSCC[C@H](NC(=O)[C@H](CC(C)C)NC(=O)CNC(=O)[C@H](Cc1ccccc1)NC(=O)[C@H](Cc1ccccc1)NC(=O)[C@H](CCC(N)=O)NC(=O)CCCCCNC(=O)[C@@H](N)CS)C(N)=O` (H-C[Ahx]QFFGLM-NH2): the outcome in the data set on U-251, in the data set on MDA-MB-231, with MCF7 and with U-87MG ATCC was inactive.

For the molecule `CC[C@@]1(OC(=O)OCCSSC[C@H](N)C(=O)NCCCCCC(=O)N[C@@H](CCC(N)=O)C(=O)N[C@@H](Cc2ccccc2)C(=O)N[C@@H](Cc2ccccc2)C(=O)NCC(=O)N[C@@H](CC(C)C)C(=O)N[C@@H](CCSC)C(N)=O)C(=O)OCc2c1cc1n(c2=O)Cc2cc3ccccc3nc2-1` (H-C(S(CH2)2OCO2(CPT-20-yl))[Ahx]QFFGLM-NH2), the Drug uptake entry in the data set on CHO [1] and in the data set on CHO [3] was “Active” each time. In addition, the solubility in data set [2] is 8.4 µg/mL (≈ 5.97 µM). Further, the Activity result was “Dose-dependent effect” in the data set with U-251; “Dose-dependent effect” with MDA-MB-231; “Not Active” with CHO [4]; “Dose-dependent effect” in the data set on MCF7; “Dose-dependent effect” with U-87MG ATCC. For the same molecule, the outcome with CHO [5] was Active.

For `CC[C@@]1(O)C(=O)OCc2c1cc1n(c2=O)Cc2cc3ccccc3nc2-1` [CAMPTOTHECIN], the Drug uptake entry in the data set with CHO [1] and with CHO [3] was “Active” in each case. In addition, the concentration in solution in data set [2] (solubility) came to 2.7 µg/mL (≈ 7.75 µM). Moreover, the Activity entry with U-251 was “Dose-dependent effect”; with MDA-MB-231, “Dose-dependent effect”; in the data set on MCF7, “Dose-dependent effect”; in the data set on U-87MG ATCC it was “Dose-dependent effect”; with CHO [6], “Toxic”.

For `CC[C@@]1(OC(=O)OCCSSC[C@H](N)C(=O)N[C@@H](CCCNC(=N)N)C(=O)N2CCC[C@H]2C(=O)N[C@@H](CCCCN)C(=O)N2CCC[C@H]2C(=O)N[C@@H](CCC(N)=O)C(=O)N[C@@H](CCC(N)=O)C(=O)N[C@@H](Cc2ccccc2)C(=O)N[C@@H](Cc2ccccc2)C(=O)NCC(=O)N[C@@H](CC(C)C)C(=O)N[C@@H](CCSC)C(N)=O)C(=O)OCc2c1cc1n(c2=O)Cc2cc3ccccc3nc2-1`, the Drug uptake result with CHO [1] and in the data set on CHO [3] was “Active” throughout. Further, the concentration in solution in [2] (solubility) came to 103 µg/mL (≈ 54.2 µM). Besides, the Activity entry in the data set with U-251 is “Dose-dependent effect”; in the data set with MDA-MB-231, “Dose-dependent effect”; in the data set on CHO [4], “Not Active”; in the data set on MCF7 it was “Dose-dependent effect”; with U-87MG ATCC, “Dose-dependent effect”. In addition, the result with CHO [5] was Active.
